The record followed here is patent publication US20210355104A1, “ADENOSINE RECEPTOR BINDING COMPOUNDS” (Nikang Therapeuticsm Inc., priority 2018, published 2021).

“And” between values parts separate entries of the source, which are not always exact repeats. Equal entries are not always repeated.

The target in assay [1] is T1, Adenosine A2A receptor (Homo sapiens, UniProt P29274). The assay is described as follows: cAMP assay in 293A cells stably expressing the adenosine A2A receptor (CGS21680 stimulation, HTRF). To be noted: 293A-A2AR cells, 0.1% BSA, values separated by / are repeat determinations. It is filed as cell-based. Further details: expressed in transfected cells; host or cells: 293A cells (Invitrogen, Cat# R705-07) infected with A2A-expressing lentivirus (custom packaged by Biosettia), puromycin selected. Background: Cyclic AMP is a second messenger, typically raised through Gs and lowered through Gi signalling.

In assay [2] the target is T1, Adenosine A2A receptor. Briefly: Adenosine A2A receptor competitive binding assay (Tag-lite HTRF). To be noted: Tag-lite adenosine A2A receptor ligand binding. As to the method:
Adenosine A2A Receptor Competitive Binding Assay
The Tag-lite adenosine A2A receptor ligand binding assay is a homogeneous alternative to radioligand binding assay and developed by Cisbio (Bedford, Mass.). We carried out this assay following Cisbio's instructions with minor modification. Pre-transfected, fluorescent donor-labelled cells (Cisbio Cat#: C1TT1A2A, 200 testes) was stored at −80° C. and thawed right before use. Cells were washed once with 5 ml TLB and gently resuspended in 2 ml TLB. 4 μl suspended cells was dispensed into each well of white low-volume 384-well plate (Greiner Bio-One). Serial dilutions of compounds were prepared in Tag-lite buffer (TLB, Cisbio Cat #: LABMED) to a DMSO concentration of 0.6%. After adding 4 μl of compound dilutions to each well, 4 μl60 nM Adenosine A2A receptor red antagonist fluorescent ligand (Cisbio Cat #: L0058RED) was dispensed to each well. The 384-well assay plate was centrifuged briefly and incubated at room temperature for 2 h. HTRF signals were measured using CIARIOstar plate reader (BMG Labtech).

Setting [3] is: 8 nM CGS, read-out: cAMP (nM) 0.1% BSA, 8 nM CGS.
Where [4] appears, read: 2 h room temperature, values separated by / are repeat determinations.

T1 sequence (P29274 whole entry): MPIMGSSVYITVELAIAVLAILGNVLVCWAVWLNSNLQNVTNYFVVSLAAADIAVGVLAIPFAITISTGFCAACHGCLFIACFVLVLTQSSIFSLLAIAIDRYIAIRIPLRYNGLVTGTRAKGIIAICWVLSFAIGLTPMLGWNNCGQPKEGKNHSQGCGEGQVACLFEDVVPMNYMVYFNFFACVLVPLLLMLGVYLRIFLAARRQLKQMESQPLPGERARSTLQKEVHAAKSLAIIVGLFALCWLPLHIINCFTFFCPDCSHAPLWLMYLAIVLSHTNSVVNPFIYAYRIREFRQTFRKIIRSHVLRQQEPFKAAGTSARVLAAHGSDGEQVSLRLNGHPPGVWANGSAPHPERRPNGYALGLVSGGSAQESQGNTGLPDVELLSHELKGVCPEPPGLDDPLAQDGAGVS

For the molecule `CNC(=O)COc1nc(N)nc(-c2ccccc2)c1-c1cc(C)nc(C(F)(F)F)c1` [Example 1, 2-((2-amino-5-(2-methyl-6-(trifluoromethyl)pyridin-4-yl)-6-phenylpyrimidin-4-yl)oxy)-N-methylacetamide], the IC50 at Adenosine A2A receptor [1] (setting [3]) was 40 nM and 17 nM; on Adenosine A2A receptor [1] (1 uM CGS, read-out: cAMP (nM) 0.1% BSA, 1 uM CGS), 4040 nM; at Adenosine A2A receptor [2] (setting [4]) it was 11.1 nM.

As to `Cc1cc(-c2c(OCC(=O)N(C)C)nc(N)nc2-c2ccccc2)cc(C(F)(F)F)n1` [Example 2, 2-((2-amino-5-(2-methyl-6-(trifluoromethyl)pyridin-4-yl)-6-phenylpyrimidin-4-yl)oxy)-N,N-dimethylacetamide], the IC50 on Adenosine A2A receptor [1] (setting [3]) is 6.8 nM and 3.4 nM; at Adenosine A2A receptor [2] (setting [4]) it was 30.5 nM. `Cc1cc(-c2c(OCC(=O)NCCN(C)C)nc(N)nc2-c2ccc(F)cc2)cc(C(F)F)n1` [Example 43, 2-((2-amino-5-(2-(difluoromethyl)-6-methylpyridin-4-yl)-6-(4-fluorophenyl)pyrimidin-4-yl)oxy)-N-(2-(dimethylamino)ethyl)acetamide]: the IC50 on Adenosine A2A receptor [2] (setting [4]) was determined as 266 nM. On the same count and under the same terms, the value for `Cc1cc(-c2c(OCC(=O)NC3CCN(C)CC3)nc(N)nc2-c2ccc(F)cc2)cc(C(F)F)n1` [Example 44, 2-((2-amino-5-(2-(difluoromethyl)-6-methylpyridin-4-yl)-6-(4-fluorophenyl)pyrimidin-4-yl)oxy)-N-(1-methylpiperidin-4-yl)acetamide] was 1210 nM. For the molecule `Cc1cc(-c2c(Oc3ccccc3)nc(N)nc2-c2ccc(F)cc2)cc(C(F)F)n1` [Example 47, 5-(2-(difluoromethyl)-6-methylpyridin-4-yl)-4-(4-fluorophenyl)-6-phenoxypyrimidin-2-amine], on Adenosine A2A receptor [2] (setting [4]), the IC50 was determined as 21.3 nM. Regarding `Cc1cc(-c2c(OCCN3CCN(S(C)(=O)=O)CC3)nc(N)nc2-c2ccc(F)cc2)cc(C(F)F)n1` [Example 49, 5-(2-(difluoromethyl)-6-methylpyridin-4-yl)-4-(4-fluorophenyl)-6-(2-(4-(methylsulfonyl)piperazin-1-yl)ethoxy)pyrimidin-2-amine], at Adenosine A2A receptor [2] (setting [4]), the IC50 is 13.9 nM. As for `Cc1cc(-c2c(OCC(=O)NCCCS(C)(=O)=O)nc(N)nc2-c2ccc(F)cc2)cc(C(F)F)n1` [Example 50, 2-((2-amino-5-(2-(difluoromethyl)-6-methylpyridin-4-yl)-6-(4-fluorophenyl)pyrimidin-4-yl)oxy)-N-(3-(methylsulfonyl)propyl)acetamide], at Adenosine A2A receptor [2] (setting [4]), the IC50 was 535 nM. Same read-out and setting: the value for `Cc1cc(-c2c(OCCc3ccc(N4CCN(S(C)(=O)=O)CC4)cc3)nc(N)nc2-c2ccc(F)cc2)cc(C(F)F)n1` [Example 58, 5-(2-(difluoromethyl)-6-methylpyridin-4-yl)-4-(4-fluorophenyl)-6-(4-(4-(methylsulfonyl)piperazin-1-yl)phenethoxy)pyrimidin-2-amine] was 28 nM.

On Adenosine A2A receptor [2] (setting [4]), `Cc1cc(-c2c(OCCc3ccc(N4CCN(C5COC5)CC4)cc3)nc(N)nc2-c2ccc(F)cc2)cc(C(F)F)n1` [Example 64, 5-[2-(difluoromethyl)-6-methylpyridin-4-yl]-4-(4-fluorophenyl)-6-(2-[4-[4-(oxetan-3-yl)piperazin-1-yl]phenyl]ethoxy)pyrimidin-2-amine] returned an IC50 of 31 nM. The same measure, in the same setting: the value for `COC(=O)Nc1ccc(CCOc2nc(N)nc(-c3ccc(F)cc3)c2-c2cc(C)nc(C(F)F)c2)cc1` [Example 72, Methyl(4-(2-((2-amino-5-(2-(difluoromethyl)-6-methylpyridin-4-yl)-6-(4-fluorophenyl)pyrimidin-4-yl)oxy)ethyl)phenyl)carbamate] was 41 nM. Same read-out and setting: to `Cc1cc(-c2c(OCC(O)C(C)(C)O)nc(N)nc2-c2ccc(F)cc2)cc(C(F)F)n1` (stereo not shown) [Example 91, 1-((2-amino-5-(2-(difluoromethyl)-6-methylpyridin-4-yl)-6-(4-fluorophenyl)pyrimidin-4-yl)oxy)-3-methylbutane-2,3-diol] belongs > 1000 nM; to `Cc1cc(-c2c(OCCc3ccc(C#N)cc3)nc(N)nc2-c2ccc(F)cc2)cc(C(F)F)n1` [Example 93, 4-(2-((2-amino-5-(2-(difluoromethyl)-6-methylpyridin-4-yl)-6-(4-fluorophenyl)pyrimidin-4-yl)oxy)ethyl)benzonitrile], 133 nM. Same read-out and setting: to `Cc1cc(-c2c(OCC3CCN(S(C)(=O)=O)CC3)nc(N)nc2-c2ccc(F)cc2)cc(C(F)F)n1` [Example 96, 5-(2-(difluoromethyl)-6-methylpyridin-4-yl)-4-(4-fluorophenyl)-6-((1-(methylsulfonyl)piperidin-4-yl)methoxy)pyrimidin-2-amine] belongs 61 nM; to `Cc1cc(-c2c(C(=O)NC3CCCc4cccnc43)nc(N)nc2-c2ccc(F)cc2)cc(C(F)F)n1` (stereo not shown) [Example 100, 2-amino-5-(2-(difluoromethyl)-6-methylpyridin-4-yl)-6-(4-fluorophenyl)-N-(5,6,7,8-tetrahydroquinolin-8-yl)pyrimidine-4-carboxamide], 66 nM. The molecule `Cc1cc(-c2c(OCC(=O)N(C)C3COC3)nc(N)nc2-c2ccc(F)cc2)cc(C(F)F)n1` [Example 101, 2-((2-amino-5-(2-(difluoromethyl)-6-methylpyridin-4-yl)-6-(4-fluorophenyl)pyrimidin-4-yl)oxy)-N-methyl-N-(oxetan-3-yl)acetamide] registered an IC50 at Adenosine A2A receptor [2] (setting [4]) of 70 nM. The same measure, in the same setting: to `Cc1cc(-c2c(OCC3(O)CCOCC3)nc(N)nc2-c2ccc(F)cc2)cc(C(F)F)n1` [Example 104, 4-(((2-amino-5-(2-(difluoromethyl)-6-methylpyridin-4-yl)-6-(4-fluorophenyl)pyrimidin-4-yl)oxy)methyl)tetrahydro-2H-pyran-4-ol] belongs > 1000 nM; to `Cc1cc(-c2c(OCC(=O)Nc3ccccn3)nc(N)nc2-c2ccc(F)cc2)cc(C(F)F)n1` [Example 107, 2-((2-amino-5-(2-(difluoromethyl)-6-methylpyridin-4-yl)-6-(4-fluorophenyl)pyrimidin-4-yl)oxy)-N-(pyridin-2-yl)acetamide], 44 nM. On the same count and under the same terms, to `Cc1cc(-c2c(C(=O)NCc3cccc(C(C)C)n3)nc(N)nc2-c2ccc(F)cc2)cc(C(F)F)n1` [Example 108, 2-amino-5-(2-(difluoromethyl)-6-methylpyridin-4-yl)-6-(4-fluorophenyl)-N-((6-isopropylpyridin-2-yl)methyl)pyrimidine-4-carboxamide] belongs 222 nM; to `Cc1cc(-c2c(C(=O)NCc3cccc(C4CC4)n3)nc(N)nc2-c2ccc(F)cc2)cc(C(F)F)n1` [Example 109], 205 nM. For `Cc1cc(-c2c(C(=O)NCc3cccc(C(C)(C)O)n3)nc(N)nc2-c2ccc(F)cc2)cc(C(F)F)n1` [Example 110, 2-amino-5-(2-(difluoromethyl)-6-methylpyridin-4-yl)-6-(4-fluorophenyl)-N-((6-(2-hydroxypropan-2-yl)pyridin-2-yl)methyl)pyrimidine-4-carboxamide], on Adenosine A2A receptor [2] (setting [4]), the IC50 was 250 nM. On the same count and under the same terms, the value for `Cc1cc(-c2c(OCc3nccn3C3CCOCC3)nc(N)nc2-c2ccc(F)cc2)cc(C(F)F)n1` [Example 172, 5-(2-(difluoromethyl)-6-methylpyridin-4-yl)-4-(4-fluorophenyl)-6-((1-(tetrahydro-2H-pyran-4-yl)-1H-imidazol-2-yl)methoxy)pyrimidin-2-amine] was 165 nM. Take `CCc1nnn(C)c1COc1nc(N)nc(-c2ccc(F)cc2)c1-c1cc(C)nc(C(F)F)c1` [Example 200, 5-(2-(difluoromethyl)-6-methylpyridin-4-yl)-4-((4-ethyl-1-methyl-1H-1,2,3-triazol-5-yl)methoxy)-6-(4-fluorophenyl)pyrimidin-2-amine]: the IC50 on Adenosine A2A receptor [2] (HTRF) came out at 13 nM. Molecule `Cc1cc(-c2c(OCc3nccn3CCC(C)(C)C(=O)O)nc(N)nc2-c2ccc(F)cc2)cc(C(F)F)n1` [Example 216, 4-(2-(((2-amino-5-(2-(dilfluoromethyl)-6-methylpyridin-4-yl)-6-(4-fluorophenyl)pyrimidin-4-yl)oxy)methyl)-1H-imidazol-1-yl)-2,2-dimethylbutanoic acid] gave an IC50 on Adenosine A2A receptor [2] (HTRF) of 306 nM.

On Adenosine A2A receptor [2] (HTRF), `Cc1cc(-c2c(OCc3nnn(CC4CC4)n3)nc(N)nc2-c2ccc(F)cc2)cc(C(F)F)n1` [Example 220, 4-((2-(cyclopropylmethyl)-2H-tetrazol-5-yl)methoxy)-5-(2-(difluoromethyl)-6-methylpyridin-4-yl)-6-(4-fluorophenyl)pyrimidin-2-amine] gave an IC50 of 14 nM. Still for that read-out and setting: to `CCn1cnnc1COc1nc(N)nc(-c2ccc(F)cc2)c1-c1cc(C)nc(C(F)F)c1` [Example 222, 5-(2-(difluoromethyl)-6-methylpyridin-4-yl)-4-((4-ethyl-4H-1,2,4-triazol-3-yl)methoxy)-6-(4-fluorophenyl)pyrimidin-2-amine] belongs 15 nM.
